Data on eight compounds can be found in ChEMBL document CHEMBL3286253, “Design, synthesis, and structure-activity relationship studies of novel thioether pleuromutilin derivatives as potent antibacterial agents” (J Med Chem, 2014).

≈ marks a conversion by molar mass, not a printed value.

What all share (format): functional
In assay [1] the test system is Staphylococcus aureus. Briefly: Antibacterial activity against Staphylococcus aureus […] after 16 hrs by agar dilution method. (In general: In agar dilution the substance is mixed into plates at graded concentrations.)
The subject of assay [2] is Staphylococcus aureus. Briefly: Antibacterial activity against methicillin-sensitive Staphylococcus aureus after 16 hrs by agar dilution method.
Assay [3] has as its system Staphylococcus aureus. Briefly: Antibacterial activity against methicillin-resistant Staphylococcus aureus after 16 hrs by agar dilution method.
Assay [4] has as its system Staphylococcus epidermidis. Briefly: Antibacterial activity against methicillin-sensitive Staphylococcus epidermidis after 16 hrs by agar dilution method.
The subject of the next assay is Streptococcus pneumoniae. Briefly: Antibacterial activity against penicillin-resistant Streptococcus pneumoniae after 16 hrs by agar dilution method.
The test system of assay [5] is Staphylococcus epidermidis. Briefly: Antibacterial activity against methicillin-resistant Staphylococcus epidermidis after 16 hrs by agar dilution method.

By MIC is commonly meant the lowest concentration found to suppress growth. A high value points to a less susceptible organism. With `C=C[C@]1(C)C[C@@H](OC(=O)CSc2cncc(NC(=O)CN3CCCC3)c2)[C@]2(C)[C@H](C)CC[C@]3(CCC(=O)[C@H]32)[C@@H](C)[C@@H]1O`, the MIC with Staphylococcus aureus [1] is 0.125 µg/mL (≈ 0.209 µM); in the assay with Staphylococcus aureus [2] it was 0.125 µg/mL (≈ 0.209 µM); against Staphylococcus aureus [3], 0.125 µg/mL (≈ 0.209 µM); in assay [4], 0.031 µg/mL (≈ 0.0519 µM); with Streptococcus pneumoniae, 0.031 µg/mL (≈ 0.0519 µM); in assay [5], 0.125 µg/mL (≈ 0.209 µM).

In the case of `C=C[C@]1(C)C[C@@H](OC(=O)CSc2cncc(NC(=O)CN3CCCCC3)c2)[C@]2(C)[C@H](C)CC[C@]3(CCC(=O)[C@H]32)[C@@H](C)[C@@H]1O`, the minimal inhibitory concentration (MIC) in the assay on Staphylococcus aureus [1] was found to be 0.125 µg/mL (≈ 0.204 µM); against Staphylococcus aureus [2] it was 0.125 µg/mL (≈ 0.204 µM); with Staphylococcus aureus [3], 0.25 µg/mL (≈ 0.409 µM); in assay [4], 0.125 µg/mL (≈ 0.204 µM); in the assay on Streptococcus pneumoniae, 0.125 µg/mL (≈ 0.204 µM); in assay [5], 0.125 µg/mL (≈ 0.204 µM).

On to `C=C[C@]1(C)C[C@@H](OC(=O)CSc2cncc(NC(=O)CN3CCC[C@H]3CN)c2)[C@]2(C)[C@H](C)CC[C@]3(CCC(=O)[C@H]32)[C@@H](C)[C@@H]1O`, for which the minimal inhibitory concentration (MIC) was determined as 0.25 µg/mL (≈ 0.399 µM) in the assay on Staphylococcus aureus [1]; 0.5 µg/mL (≈ 0.798 µM) against Staphylococcus aureus [2]; 1 µg/mL (≈ 1.6 µM) against Staphylococcus aureus [3]; 0.5 µg/mL (≈ 0.798 µM) in assay [4]; 0.063 µg/mL (≈ 0.101 µM) in the assay with Streptococcus pneumoniae; 0.5 µg/mL (≈ 0.798 µM) in assay [5].

As for `C=C[C@]1(C)C[C@@H](OC(=O)CSc2cncc(NC(=O)CN3CCC[C@H]3CO)c2)[C@]2(C)[C@H](C)CC[C@]3(CCC(=O)[C@H]32)[C@@H](C)[C@@H]1O`, the MIC against Staphylococcus aureus [1] came to 0.063 µg/mL (≈ 0.1 µM); in the assay on Staphylococcus aureus [2], 0.125 µg/mL (≈ 0.199 µM); with Staphylococcus aureus [3], 0.125 µg/mL (≈ 0.199 µM); in assay [4], 0.125 µg/mL (≈ 0.199 µM); in the assay on Streptococcus pneumoniae, 0.125 µg/mL (≈ 0.199 µM); in assay [5] it was 0.125 µg/mL (≈ 0.199 µM).

In the case of `C=C[C@]1(C)C[C@@H](OC(=O)CSc2cncc(NC(=O)CN3CC[C@H](O)C3)c2)[C@]2(C)[C@H](C)CC[C@]3(CCC(=O)[C@H]32)[C@@H](C)[C@@H]1O`, the minimum inhibitory concentration (MIC) (in the assay with Staphylococcus aureus [1]; with Staphylococcus aureus [2]; in the assay on Staphylococcus aureus [3]; in assay [4]; against Streptococcus pneumoniae; in assay [5]) was 0.125 µg/mL (≈ 0.204 µM) throughout.

Regarding `C=C[C@]1(C)C[C@@H](OC(=O)CSc2cncc(NC(=O)CN3CCCC(CO)C3)c2)[C@]2(C)[C@H](C)CC[C@]3(CCC(=O)[C@H]32)[C@@H](C)[C@@H]1O` (stereo partly drawn), the MIC (in the assay with Staphylococcus aureus [1]; against Staphylococcus aureus [2]; against Staphylococcus aureus [3]; in assay [4]; against Streptococcus pneumoniae; in assay [5]) was 0.063 µg/mL (≈ 0.0981 µM) throughout.

For the compound `C=C[C@]1(C)C[C@@H](OC(=O)CSc2cncc(NC(=O)CNCCO)c2)[C@]2(C)[C@H](C)CC[C@]3(CCC(=O)[C@H]32)[C@@H](C)[C@@H]1O`, the minimum inhibitory concentration (MIC) against Staphylococcus aureus [1] was determined as 0.125 µg/mL (≈ 0.213 µM); against Staphylococcus aureus [2], 0.125 µg/mL (≈ 0.213 µM); in the assay on Staphylococcus aureus [3], 0.25 µg/mL (≈ 0.425 µM); in assay [4], 0.125 µg/mL (≈ 0.213 µM); against Streptococcus pneumoniae it was 0.063 µg/mL (≈ 0.107 µM); in assay [5], 0.25 µg/mL (≈ 0.425 µM).

Regarding `C=C[C@]1(C)C[C@@H](OC(=O)CS[C@@H]2C[C@H]3CC[C@@H](C2)N3C)[C@]2(C)[C@H](C)CC[C@]3(CCC(=O)[C@H]32)[C@@H](C)[C@@H]1O` [RETAPAMULIN], the minimum inhibitory concentration (MIC) against Staphylococcus aureus [1] came to 0.125 µg/mL (≈ 0.241 µM); against Staphylococcus aureus [2], 0.063 µg/mL (≈ 0.122 µM); against Staphylococcus aureus [3], 0.063 µg/mL (≈ 0.122 µM); in assay [4], 0.063 µg/mL (≈ 0.122 µM); against Streptococcus pneumoniae, 0.063 µg/mL (≈ 0.122 µM); in assay [5], 0.063 µg/mL (≈ 0.122 µM).
